pIC50: −log10 of the molar value. “And” between values parts separate entries of the source, which are not always exact repeats. Equal values may be shown once. Read-outs that look alike come from different tables or passages of the source.
Legend:
MCF7 (mammary carcinoma) = assay: tumor cell growth inhibition (SRB, 72 h drug exposure); format: cell-based, human; settings: read-out: MCF7 IC50
Description: (§1) Lower numbers indicate higher potency. […] The data represent the mean values of at least three separate experiments. Lower numbers indicate greater activity.
(§2) Assessment of cell growth inhibition was determined according to the methods of Skehan et al., J. Nat. Cancer Inst. […] Briefly, cells were plated between 400 and 1200 cells/well in 96 well plates and incubated at 37° C. for 15-18 h prior to drug addition to allow attachment of cells. […] After a 72 h incubation, […] of ice-cold 50% TCA was added to each well and incubated for 1 h at 4° C. Plates were then washed 5 times with tap water to remove TCA, low-molecular-weight metabolites and serum proteins. Sulforhodamine B (SRB) (0.4%, […]) was added to each well. Following a 5 min incubation at room temperature, plates were rinsed 5 times with 0.1% acetic acid and air dried. […] Optical density was measured at 570 nm.

[1] = test system: MCF7-R (mammary carcinoma cells 180-fold resistant to adriamycin); assay: as above; format: cell-based, human
Description: as §1, §2

[2] = test system: LCC6-WT: human breast carcinoma; assay: cytotoxicity assay of second generation taxoids; format: cell-based; settings: 72 h drug exposure; read-out: LCC6-WT IC50
Description: A cytotoxicity assay of these new second generation taxoids was performed on human breast cancer cell lines, LCC6-WT and LCC-MDR, and selected taxoids were also assayed for their potency against MCF7 and MCF7-R (Skehan, P., et al., J. Nat. Cancer Inst. 1990, 82, 1107-1112).

B16 melanoma = assay: intravenous administration to mice bearing B16 melanoma; format: in vivo, B6D2F1 female mice; parameters: key to Responses (activity rating): A = active; HA = highly active
Description: (§3) The efficacy of the test compounds on solid tumors in vivo was determined experimentally according to the following general experimental protocol:
(§4) The mice subjected to the experiment were subcutaneously grafted bilaterally with 30 to 60 mg of a tumor fragment on day zero. Mice bearing tumors were mixed before being subjected to the various treatments and controls. In the case of treatment of advanced tumors, tumors were allowed to develop to the desired size, and mice having insufficiently developed tumors were eliminated. The selected mice were distributed at random to undergo the treatments and controls. Mice not bearing tumors may also be subjected to the same treatments as the tumor-bearing mice in order to be able to dissociate the toxic effect from the specific effect on the tumor. Chemotherapy generally began from 3 to 22 days after grafting, depending on the type of tumor, and the mice were observed every day. The different mice groups were weighed 3 or 4 times a week until the maximum weight loss was attained (nadir), and the groups were then weighed at least once a week until the end of the trial.
(§5) The tumors were measured 2 or 3 times a week until the tumor reached approximately 2 grams, or until the animal died, if this occurred before the tumor reached 2 grams. The mice were autopsied when sacrificed.
(§6) The antitumor activity was determined in accordance with different parameters recorded such as dose (mg/kg), mode of administration, time of administration, cytotoxicity, toxicity and log10 cell kill.
SB-T-1213, SB-T-121303, SB-T-121304 and SB-T-1250 were evaluated in B6D2F1 female mice bearing B16 melanoma. The general experimental protocol was as described above. The compounds evaluated were administered intravenously (iv) on an intermittent schedule on days 3, 5, and 7 post tumor implantation. With the exception of SB-T-1250, solutions of the compounds for administration were prepared in 5% ethanol, 5% polysorbate 80, and 90% glucose 5% water.

[3] = test system: docetaxel-resistant melanoma, B16/TXT; assay: intravenous administration to B16/TXT melanoma-bearing mice; format: in vivo, B6D2F1 female mice; settings: days 3, 5, 7
Description: as §3, §4, §5, §6
SB-T-1213, SB-T-121303, SB-T-121304 and SB-T-1250 were evaluated in B6D2F1 female mice bearing the docetaxel-resistant melanoma, B16/TXT. The general experimental protocol was as described above. The compounds evaluated were administered intravenously on an intermittent schedule on days 3, 5, and 7 post tumor implantation.

| Molecule | pIC50 (MCF7 (mammary carcinoma); Table 2) | pIC50 ([1]; Table 2) | pIC50 [2] | further results |
| --- | --- | --- | --- | --- |
| C=CCC(NC(=O)OC(C)(C)C)C(O)C(=O)OC1CC2(O)C(OC(=O)c3cccc(OC)c3)C3C4(OC(C)=O)COC4CC(O)C3(C)C(=O)C(OC(=O)CC)C(=C1C)C2(C)C (stereo not drawn) [Taxoid 7i, 3′-Dephenyl-3′-(2-propenyl)-2-debenzoyl-2-(3-methoxybenzoyl)-10-propanoyldocetaxel] | – | – | 8.92 | pIC50 (MCF7 (mammary carcinoma); 72 h drug exposure, Table 3): 9.10; pIC50 ([1]; 72 h drug exposure, Table 3): 8.06 |
| CCC(=O)OC1C(=O)C2(C)C(O)CC3OCC3(OC(C)=O)C2C(OC(=O)c2cccc(OC)c2)C2(O)CC(OC(=O)C(O)C(NC(=O)OC(C)(C)C)C(F)F)C(C)=C1C2(C)C (stereo not drawn) [Taxoid 7g, 3′-Dephenyl-3′-difluoromethyl-2-debenzoyl-2-(3-methoxybenzoyl)-10-propanoyldocetaxel] | – | – | 8.82 | pIC50 (MCF7 (mammary carcinoma); 72 h drug exposure, Table 3): 9.40; pIC50 ([1]; 72 h drug exposure, Table 3): 8.37 |
| CCC(=O)OC1C(=O)C2(C)C(O)CC3OCC3(OC(C)=O)C2C(OC(=O)c2cccc(F)c2)C2(O)CC(OC(=O)C(O)C(CC(C)C)NC(=O)OC(C)(C)C)C(C)=C1C2(C)C (stereo not drawn) [Taxoid 7a, 3′-Dephenyl-3′-(2-methylpropyl)-2-debenzoyl-2-(3-fluorobenzoyl)-10-propanoyldocetaxel] | – | – | 9.40 | – |
| CC(=O)OC12COC1CC(O)C1(C)C(=O)C(OC(=O)C3CC3)C3=C(C)C(OC(=O)C(O)C(CC(C)C)NC(=O)OC(C)(C)C)CC(O)(C(OC(=O)c4ccccc4)C21)C3(C)C (stereo not drawn) [Taxoid Ic′, 3′-Dephenyl-3′-(2-methylpropyl)-10-cyclopropanecarbonyldocetaxel] | 9.29 | 8.36 | – | – |
| CCC(=O)OC1C(=O)C2(C)C(O)CC3OCC3(OC(C)=O)C2C(OC(=O)c2cccc(OC)c2)C2(O)CC(OC(=O)C(O)C(NC(=O)OC(C)(C)C)[C@H]3CC3(C)C)C(C)=C1C2(C)C (stereo partly drawn) [Taxoid 7j, 3′-Dephenyl-3′-[(S)-2,2-dimethylcyclopropyl]-2-debenzoyl-2-(3-methoxybenzoyl)-10-propanoyldocetaxel] | – | – | 9.32 | pIC50 (MCF7 (mammary carcinoma); 72 h drug exposure, Table 3): 9.22; pIC50 ([1]; 72 h drug exposure, Table 3): 8.82 |
| COC(=O)OC1C(=O)C2(C)C(O)CC3OCC3(OC(C)=O)C2C(OC(=O)c2ccccc2)C2(O)CC(OC(=O)C(O)C(C=C(C)C)NC(=O)OC(C)(C)C)C(C)=C1C2(C)C (stereo not drawn) [Taxoid If, 3′-Dephenyl-3′-(2-methyl-1-propenyl)-10-methoxycarbonyldocetaxel] | 9.85 | 8.28 | – | – |
| CCC(=O)OC1C(=O)C2(C)C(O)CC3OCC3(OC(C)=O)C2C(OC(=O)c2cccc(Cl)c2)C2(O)CC(OC(=O)C(O)C(C=C(C)C)NC(=O)OC(C)(C)C)C(C)=C1C2(C)C (stereo not drawn) [Taxoid 7d, 3′-Dephenyl-3′-(2-methylprop-1-enyl)-2-debenzoyl-2-(3-chlorobenzoyl)-10-propanoyldocetaxel] | – | – | 9.10 | – |
| CC(=O)OC12COC1CC(O)C1(C)C(=O)C(OC(=O)C3CC3)C3=C(C)C(OC(=O)C(O)C(C=C(C)C)NC(=O)OC(C)(C)C)CC(O)(C(OC(=O)c4ccccc4)C21)C3(C)C (stereo not drawn) [Taxoid Ic, 3′-Dephenyl-3′-(2-methyl-1-propenyl)-10-cyclopropanecarbonyldocetaxel] | 9.70 | 8.68 | – | times better activity than paclitaxel and docetaxel against drug-resistant human breast cells ([1]; MCF7-R): 142 times |
| 3′-Dephenyl-3′-(2-methylprop-1-enyl)-2-debenzoyl-2-(3-methoxybenzoyl)-10-cyclopropyldocetaxel [Taxoid 7m] | – | – | 9.00 | – |
| C=Cc1cccc(C(=O)OC2C3C4(OC(C)=O)COC4CC(O)C3(C)C(=O)C(OC(=O)CC)C3=C(C)C(OC(=O)C(O)C(C=C(C)C)NC(=O)OC(C)(C)C)CC2(O)C3(C)C)c1 (stereo not drawn) [Taxoid 7p, 3′-Dephenyl-3′-(2-methylprop-1-enyl)-2-debenzoyl-2-(3-ethenylbenzoyl)-10-propanoyldocetaxel] | – | – | 8.54 | – |
| C/C=C/C(NC(=O)OC(C)(C)C)C(O)C(=O)OC1CC2(O)C(OC(=O)c3cccc(OC)c3)C3C4(OC(C)=O)COC4CC(O)C3(C)C(=O)C(OC(=O)CC)C(=C1C)C2(C)C (stereo not drawn) [Taxoid 7k, 3′-Dephenyl-3′-[(E)-prop-1-enyl]-2-debenzoyl-2-(3-methoxybenzoyl)-10-propanoyldocetaxel] | – | – | 8.92 | – |
| CC(=O)OC12COC1CC(O)C1(C)C(=O)C(OC(=O)N(C)C)C3=C(C)C(OC(=O)C(O)C(CC(C)C)NC(=O)OC(C)(C)C)CC(O)(C(OC(=O)c4ccccc4)C21)C3(C)C (stereo not drawn) [Taxoid Ie′, 3′-Dephenyl-3′-(2-methylpropyl)-10-N,N-dimethylcarbamoyldocetaxel] | 9.44 | 8.24 | – | – |
| CC(=O)OC1C(=O)C2(C)C(O)CC3OCC3(OC(C)=O)C2C(OC(=O)c2cccc(C)c2)C2(O)CC(OC(=O)C(O)C(C=C(C)C)NC(=O)OC(C)(C)C)C(C)=C1C2(C)C (stereo not drawn) [Taxoid 7q, 3′-Dephenyl-3′-(2-methylprop-1-enyl)-2-debenzoyl-2-(3-methylbenzoyl)-10-acetyldocetaxel] | – | – | 8.82 | pIC50 (MCF7 (mammary carcinoma); 72 h drug exposure, Table 3): 9.10; pIC50 ([1]; 72 h drug exposure, Table 3): 8.30 |
| CC(=O)OC12COC1CC(O)C1(C)C(=O)C(OC(=O)N(C)C)C3=C(C)C(OC(=O)C(O)C(C=C(C)C)NC(=O)OC(C)(C)C)CC(O)(C(OC(=O)c4ccccc4)C21)C3(C)C (stereo not drawn) [Taxoid Ie, 3′-Dephenyl-3′-(2-methyl-1-propenyl)-O-N,N-dimethylcarbamoyldocetaxel] | 9.89 | 8.31 | – | – |
| CCC(=O)OC1C(=O)C2(C)C(O)CC3OCC3(OC(C)=O)C2C(OC(=O)c2ccccc2)C2(O)CC(OC(=O)C(O)C(CC(C)C)NC(=O)OC(C)(C)C)C(C)=C1C2(C)C (stereo not drawn) [Taxoid Ib′, 3′-dephenyl-3′-(2-methylpropyl)-10-propanoyldocetaxel] | 9.46 | 8.55 | – | – |
| CCC(=O)O[C@H]1C(=O)[C@@]2(C)[C@H]([C@H](OC(=O)c3cccc(OC)c3)[C@]3(O)C[C@H](OC(=O)[C@H](O)[C@H](C=C(C)C)NC(=O)OC(C)(C)C)C(C)=C1C3(C)C)[C@]1(OC(C)=O)CO[C@@H]1C[C@@H]2O [SB-T-121303] | – | – | – | Responses (activity rating) (B16 melanoma; 1.9 mg/kg/adm.): A; T/C (B16 melanoma; 1.9 mg/kg/adm., days 3, 5, 7): 12%; log10 cell kill (B16 melanoma; 1.9 mg/kg/adm., days 3, 5, 7): 1.7; % body weight loss at nadir (B16 melanoma; 1.9 mg/kg/adm., days 3, 5, 7, 1.9 mg/kg): 16.9% and 16.9 (13) %; drug related deaths (DD) (B16 melanoma; 3.2 mg/kg/adm., days 3, 5, 7): 100%; highest nontoxic dose (B16 melanoma; days 3, 5, 7): 1.9 mg/kg/adm.; T/C ([3]; 0.7 mg/kg/adm.): 94%; drug related deaths (DD) ([3]; 1.9 mg/kg/adm.): ⅕; drug related deaths (DD) ([3]; 3.2 mg/kg/adm.): 100%; highest nontoxic dose [3]: 1.2 mg/kg/adm. |
| CCC(=O)OC1C(=O)C2(C)C(O)CC3OCC3(OC(C)=O)C2C(OC(=O)c2cccc(F)c2)C2(O)CC(OC(=O)C(O)C(C=C(C)C)NC(=O)OC(C)(C)C)C(C)=C1C2(C)C (stereo not drawn) [Taxoid 7b, 3′-Dephenyl-3′-(2-methylprop-1-enyl)-2-debenzoyl-2-(3-fluorobenzoyl)-10-propanoyldocetaxel] | – | – | 9.30 | – |
| CC=CC(=O)OC1C(=O)C2(C)C(O)CC3OCC3(OC(C)=O)C2C(OC(=O)c2ccccc2)C2(O)CC(OC(=O)C(O)C(C=C(C)C)NC(=O)OC(C)(C)C)C(C)=C1C2(C)C (stereo not drawn) [Taxoid Id, 3′-Dephenyl-3′-(2-methyl-1-propenyl)-10-crotonoyldocetaxel] | 9.59 | 8.47 | – | – |
| COC(=O)OC1C(=O)C2(C)C(O)CC3OCC3(OC(C)=O)C2C(OC(=O)c2ccccc2)C2(O)CC(OC(=O)C(O)C(CC(C)C)NC(=O)OC(C)(C)C)C(C)=C1C2(C)C (stereo not drawn) [Taxoid If′, 3′-Dephenyl-3′-(2-methylpropyl)-10-methoxycarbonyldocetaxel] | 9.32 | 8.20 | – | – |
